How the values were obtained:
[1] = Subacute toxicity, repeated intravenous doses to rats; assay type: in vivo, Sprague Dawley rats; conditions: 0.05 millimoles per kg i.v. on 10 days
Source text: Ten male Sprague Dawley rats 29 days old and weighing between 73.4 and 87.8 grams at the beginning of the experiment were randomized, employing the block stratification method, into two groups consisting of five rats each. On each of days 1, 2, 3, 6, 7, 8, 9, 10, 13 and 14 of the experiment one set of rats received an intravenous dose of N,N′,N″-tris(dihydroxyphosphorylmethyl)-1,4,7-triazacyclononane (Example 1 C in U.S. Pat. No. 5,236,695) equal to 0.05 millimoles per kg of initial body weight (experimental group) while the other group received an equivalent volume of normal saline solution. The weights of the animals were recorded three times per week and the animals were sacrificed on the 28th day, major organs removed and weighed and tissues removed for microscopic examination.

[2] = tested on: mature, nonreplicating cultures of HFF (human foreskin fibroblasts); assay: Toxicity toward nonproliferating mammalian cells in vitro; assay type: cell-based; conditions: 0.3 mM, nonreplicating HFF in maintenance media, five-day period of observation
[3] = Acute in vivo toxicity, single intravenous dose to mice; conditions: 4.0 mM/kg single intravenous dose, survival for over 14 days
Protocol: This example illustrates the low in vivo toxicity of a representative ligand administer intravenously to mice.
This in vivo LD50 toxicity dose results in an instantaneous in vivo concentration which is orders of magnitude greater than the dose of this agent which inhibits mammalian cell replication in vitro (0.009 mM/L).

Row | Structure (SMILES) | weight or rate of weight gain, experimental vs control group ([1]; injection period and two-week post-injection period) | microscopic examination of tissues, experimental vs control group ([1]; necropsy on the 28th day) | weights of major organs, experimental vs control group ([1]; sacrificed on the 28th day) | effect on resting cells [2] | mice surviving [3]
1 | O=P(O)(O)CN1CCN(CP(=O)(O)O)CCN(CP(=O)(O)O)CC1 [N,N′,N″-tris(dihydroxyphosphorylmethyl)-1,4,7-triazacyclononane] | no statistically significant difference | no differences | no differences | no effect | 
2 | O=P(O)(O)CN1CCN(CP(=O)(O)O)CCN(CP(=O)(O)O)CC1 [N,N′,N″-tris-(dihydroxyphosphorylmethyl)-1,4,7-triazacyclononane] |  |  |  |  | Over 50%
